Laboratory results published in patent US11203591B2, “Substituted 6-azabenzimidazole compounds” (Gilead Sciences, Inc., priority 2018, dated 2021).
pIC50: −log10 of the molar value.

Biological target: human HPK1 (MAP4K1) (Homo sapiens (Human), UniProt Q92918)
Test: HPK1 IC50 Assay (TR-FRET peptide phosphorylation)
Format: biochemical
Description: The enzymatic activity of human HPK1 (MAP4K1) was monitored in a biochemical assay in the presence or absence of compounds and using a synthetic peptide substrate. An increase in phosphorylation of the peptide by HPK1 was indicative of its kinase activity.
Recombinant HPK1 kinase domain produced via baculovirus infection of insect cells was obtained from Proteros (Proteros Biostructures #PR-0322) and was pre-activated in the presence of 2 mM ATP (Sigma-Aldrich, cat #GE27-2056-01) and 2 mM magnesium chloride for 16 hours at 4° C. The protein reaction mixture was then loaded to a desalting column (Thermo Fisher Scientific, Cat #89889) to remove excess ATP. HPK1 was eluted with buffer containing 20 mM Tris (2-Amino-2-(hydroxymethyl)propane-1,3-diol) pH 8.0, 150 mM NaCl, 2 mM dithiothreitol and 5% glycerol, and was frozen at −80° C. for later use. HPK1 dual phosphorylation was confirmed by mass spectrometry.
Ten nanoliters of test compounds dissolved in DMSO at various concentrations were dispensed into a 384-well ProxiPlate (PerkinElmer #6008289). Five microliters of a solution of recombinant HPK1 diluted in HPK1 kinase assay buffer (50 mM BES [N,N-Bis(2-hydroxyethyl)-2-aminoethanesulfonic acid], pH 7.0; 10 mM magnesium chloride; 0.01% Triton X-100; 1 mM dithiothreitol; 0.01% bovine serum albumin; 0.1 mM sodium orthovanadate) was added to the compound-containing plate and was incubated for 15 minutes at 25° C. Five microliters of a mixture of ATP (Sigma-Aldrich #A6559) and peptide substrate STK S1 (Cisbio #61ST1BLC) diluted in HPK1 kinase assay buffer was then added to start the reaction. Final concentrations were 0.15 nM for HPK1, 10 μM for ATP, and 1 μM for the STK S1 peptide substrate. The reaction mixture was incubated at 25° C. for 3 hours and was stopped with the addition of 10 μl of an EDTA (Ethylenediaminetetraacetic acid)-containing detection buffer (Cisbio #62SDBRDF) supplemented with Europium cryptate-labeled anti-phospho-serine/threonine antibodies (Cisbio #62ST1PEJ) and XL665-labeled streptavidin (Cisbio #610SAXLG). The mixture was incubated for 16 hours at room temperature and peptide phosphorylation was measured by time-resolved fluorescence energy transfer (665 nm/620 nm) on an Envision plate reader (PerkinElmer).
Data in Table 1 were normalized based on positive (staurosporine) and negative (DMSO) controls. Least squares curve fittings were performed using a four-parameter variable slope nonlinear regression model. IC50 is defined as the concentration of compound required to inhibit 50% of maximum phosphorylation. IC50 values from multiple experiments were averaged by geometric mean and the standard deviation was calculated.

[1] = recombinant HPK1 kinase domain 0.15 nM, 10 μM ATP, 1 μM STK S1 peptide, geometric mean of multiple experiments

Chain of human HPK1 (MAP4K1) (Q92918 17-274): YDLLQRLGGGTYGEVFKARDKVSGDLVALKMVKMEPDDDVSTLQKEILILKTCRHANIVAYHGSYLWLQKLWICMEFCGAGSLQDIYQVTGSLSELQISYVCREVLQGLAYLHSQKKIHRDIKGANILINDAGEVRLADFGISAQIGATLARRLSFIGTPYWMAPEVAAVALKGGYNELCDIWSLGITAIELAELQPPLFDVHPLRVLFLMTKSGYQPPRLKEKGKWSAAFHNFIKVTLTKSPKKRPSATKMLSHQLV

pIC50 [1]	Compound	pIC50 (0.15 nM HPK1, 10 μM ATP, 1 μM STK S1 peptide substrate, geometric mean)
10.00	CC(C)n1cnc2cc(-c3cnc4c(c3)N([C@H]3C[C@@H](N5CCCCC5)C3)C(=O)C4(C)C)nc(Nc3cc(C(=O)NC4(C(F)F)CC4)c(Cl)c(F)c3F)c21 [Example 245, 2-chloro-N-(1-(difluoromethyl)cyclopropyl)-5-((6-(3,3-dimethyl-2-oxo-1-((1s,3s)-3-(piperidin-1-yl)cyclobutyl)-2,3-dihydro-1H-pyrrolo[3,2-b]pyridin-6-yl)-3-isopropyl-3H-imidazo[4,5-c]pyridin-4-yl)amino)-3,4-difluorobenzamide]	–
10.40	CCNC(=O)c1cc(Nc2nc(-c3ccc4c(c3)N([C@H]3C[C@@](C)(N5CCCCC5)C3)C(=O)C4(C)C)cc3ncn(C(C)C)c23)c(F)c(F)c1C [Example 239, 5-((6-(3,3-Dimethyl-1-((1s,3s)-3-methyl-3-(piperidin-1-yl)cyclobutyl)-2-oxoindolin-6-yl)-3-isopropyl-3H-imidazo[4,5-c]pyridin-4-yl)amino)-N-ethyl-3,4-difluoro-2-methylbenzamide]	–
9.70	Cc1cc(F)c(Nc2nc(-c3ccc4c(c3)N([C@H]3C[C@@H](N5CCCCC5)C3)C(=O)C43CCN(C(=O)C(C)(C)O)CC3)cc3ncn(C(C)C)c23)cc1C(=O)NC(C)C [Example 55]	–
10.00	Cc1ccc(Nc2nc(-c3ccc4c(c3)N([C@H]3C[C@@H](N5CCCCC5)C3)C(=O)C4(C)C)cc3ncn(C(C)C)c23)cc1C(=O)NC1CC1 [Example 26]	–
10.15	CC(C)n1cnc2cc(-c3cnc4c(c3)N([C@H]3C[C@@](C)(N5CCCC6(CC6)C5)C3)C(=O)C4(C)C)nc(Nc3cc(C(=O)NC4(C(F)F)CC4)c(Cl)c(F)c3F)c21 [Example 203, 2-Chloro-N-(1-(difluoromethyl)cyclopropyl)-5-((6-(3,3-dimethyl-1-((1s,3s)-3-methyl-3-(5-azaspiro[2.5]octan-5-yl)cyclobutyl)-2-oxo-2,3-dihydro-1H-pyrrolo[3,2-b]pyridin-6-yl)-3-isopropyl-3H-imidazo[4,5-c]pyridin-4-yl)amino)-3,4-difluorobenzamide]	–
–	N-(1-(difluoromethyl)cyclopropyl)-5-((6-(3,3-dimethyl-1-((1s,3s)-3-methyl-3-(piperidin-1-yl)cyclobutyl)-2-oxo-2,3-dihydro-1H-pyrrolo[3,2-b]pyridin-6-yl)-3-isopropyl-3H-imidazo[4,5-c]pyridin-4-yl)amino)-2,3,4-trifluorobenzamide [Example 280]	10.30
10.00	CNC(=O)c1cc(Nc2nc(-c3ccc4c(c3)N([C@H]3C[C@@H](N5CCCCC5)C3)C(=O)C43CCN(C(=O)C4(C)CC4)CC3)cc3ncn(C4CC4)c23)ccc1C [Example 150]	–
10.00	Cc1cc(F)c(Nc2nc(-c3cnc4c(c3)N([C@H]3C[C@@](C)(N5CCOCC5)C3)C(=O)C4(C)C)cc3ncn(C(C)C)c23)cc1C(=O)NC1(C(F)F)CC1 [Example 215, N-(1-(Difluoromethyl)cyclopropyl)-5-((6-(3,3-dimethyl-1-((1s,3s)-3-methyl-3-morpholinocyclobutyl)-2-oxo-2,3-dihydro-1H-pyrrolo[3,2-b]pyridin-6-yl)-3-isopropyl-3H-imidazo[4,5-c]pyridin-4-yl)amino)-4-fluoro-2-methylbenzamide]	–
10.00	Cc1cc(F)c(Nc2nc(-c3cnc4c(c3)N([C@H]3C[C@@](C)(N5CCCCC5)C3)C(=O)C4(C)C)cc3ncn(C(C)C)c23)cc1C(=O)NC1(C(F)F)CC1 [Example 216, N-(1-(Difluoromethyl)cyclopropyl)-5-((6-(3,3-dimethyl-1-((1s,3s)-3-methyl-3-(piperidin-1-yl)cyclobutyl)-2-oxo-2,3-dihydro-1H-pyrrolo[3,2-b]pyridin-6-yl)-3-isopropyl-3H-imidazo[4,5-c]pyridin-4-yl)amino)-4-fluoro-2-methylbenzamide]	–
10.00	CNC(=O)c1cc(Nc2nc(-c3ccc4c(c3)N([C@H]3C[C@@H](N5CC6CCC(C5)O6)C3)C(=O)C4(C)C)cc3ncn(C(C)C)c23)c(F)cc1C [Example 10]	–
10.30	CC(C)NC(=O)c1cc(Nc2nc(-c3cnc4c(c3)N([C@H]3C[C@@](C)(N5CCC6CC6C5)C3)C(=O)C4(C)C)cc3ncn(C(C)C)c23)c(F)c(F)c1Cl (stereo partly drawn) [Example 254, 5-((6-(1-((1s,3s)-3-(3-azabicyclo[4.1.0]heptan-3-yl)-3-methylcyclobutyl)-3,3-dimethyl-2-oxo-2,3-dihydro-1H-pyrrolo[3,2-b]pyridin-6-yl)-3-isopropyl-3H-imidazo[4,5-c]pyridin-4-yl)amino)-2-chloro-3,4-difluoro-N-isopropylbenzamide]	–
9.70	CNC(=O)c1cc(Nc2nc(-c3ccc4c(c3)N([C@H]3C[C@@H](N5CCCCC5)C3)C(=O)C43CCN(C(C)=O)CC3)cc3ncn(C4CC4)c23)c(F)cc1Cl [Example 93]	–
10.00	Cc1c(C(=O)NC2(C(F)F)CC2)cc(Nc2nc(-c3cnc4c(c3)N([C@H]3C[C@@](C)(N5CCC(F)CC5)C3)C(=O)C4(C)C)cc3ncn(C(C)C)c23)c(F)c1F [Example 197, N-(1-(Difluoromethyl)cyclopropyl)-3,4-difluoro-5-((6-(1-((1s,3s)-3-(4-fluoropiperidin-1-yl)-3-methylcyclobutyl)-3,3-dimethyl-2-oxo-2,3-dihydro-1H-pyrrolo[3,2-b]pyridin-6-yl)-3-isopropyl-3H-imidazo[4,5-c]pyridin-4-yl)amino)-2-methylbenzamide]	–
9.70	CNC(=O)c1cc(Nc2nc(-c3ccc4c(c3)N([C@H]3C[C@@H](N5CCCCC5)C3)C(=O)C4(C)C)cc3ncn(C4CC4)c23)ccc1C [Example 79]	–
9.70	CNC(=O)c1cc(Nc2nc(-c3ccc4c(c3)N([C@H]3C[C@@H](N5CCCCC5)C3)C(=O)C43CCN(C(=O)C4(O)CC4)CC3)cc3ncn(C4CC4)c23)ccc1C [Example 84]	–
10.10	CC(C)n1cnc2cc(-c3cnc4c(c3)N([C@H]3C[C@@](C)(N5CCC6CC6C5)C3)C(=O)C4(C)C)nc(Nc3cc(C(=O)NC4(C(F)F)CC4)c(Cl)c(F)c3F)c21 (mixture of isomers) [Example 260, 5-((6-(1-((1s,3s)-3-(3-azabicyclo[4.1.0]heptan-3-yl)-3-methylcyclobutyl)-3,3-dimethyl-2-oxo-2,3-dihydro-1H-pyrrolo[3,2-b]pyridin-6-yl)-3-isopropyl-3H-imidazo[4,5-c]pyridin-4-yl)amino)-2-chloro-N-(1-(difluoromethyl)cyclopropyl)-3,4-difluorobenzamide]	–
10.15	Cc1ccc(Nc2nc(-c3ccc4c(c3)N([C@H]3C[C@@H](N5CCCCC5)C3)C(=O)C4(C)C)cc3ncn(C(C)C)c23)cc1C(=O)NCCC(F)F [Example 25]	–
10.15	CNC(=O)c1cc(Nc2nc(-c3ccc4c(c3)N([C@H]3C[C@@H](N5CCCCC5)C3)C(=O)C43CCN(C(=O)C45CC(C4)C5)CC3)cc3ncn(C4CC4)c23)ccc1Cl [Example 41]	–
10.00	Cc1ccc(Nc2nc(-c3ccc4c(c3)N([C@H]3C[C@@H](N5CCCCC5)C3)C(=O)C4(C)C)cc3ncn(C(C)C)c23)cc1C(=O)N[C@@H](C)CF [Example 29]	–
10.22	CNC(=O)c1cc(Nc2nc(-c3ccc4c(c3)N([C@H]3C[C@@H](N5CCCCC5)C3)C(=O)C43CCN(C(=O)C4CCC4)CC3)cc3ncn(C4CC4)c23)ccc1C [Example 155]	–
10.15	Cc1c(C(=O)NC2(C(F)F)CC2)cc(Nc2nc(-c3ccc4c(c3)N([C@H]3C[C@@](C)(N5CCCCC5)C3)C(=O)C4(C)C)cc3ncn(C(C)C)c23)c(F)c1F [Example 236, N-(1-(Difluoromethyl)cyclopropyl)-5-((6-(3,3-dimethyl-1-((1s,3s)-3-methyl-3-(piperidin-1-yl)cyclobutyl)-2-oxoindolin-6-yl)-3-isopropyl-3H-imidazo[4,5-c]pyridin-4-yl)amino)-3,4-difluoro-2-methylbenzamide]	–
10.40	Cc1ccc(Nc2nc(-c3ccc4c(c3)N([C@H]3C[C@@H](N5CCC[C@@H](F)C5)C3)C(=O)C4(C)C)cc3ncn(C4CC4)c23)cc1C(N)=O [Example 17]	–
10.00	CNC(=O)c1cc(Nc2nc(-c3ccc4c(c3)N([C@H]3C[C@@H](N5CCC[C@@H](F)C5)C3)C(=O)C4(C)C)cc3ncn(C(C)C)c23)c(F)cc1C [Example 107]	–

Compound	pIC50 [1]	pIC50 (0.15 nM HPK1, 10 μM ATP, 1 μM STK S1 peptide substrate, geometric mean)
CNC(=O)c1cc(Nc2nc(-c3ccc4c(c3)N([C@H]3C[C@@H](N5CC[C@H](F)C5)C3)C(=O)C43CCN(C4COC4)CC3)cc3ncn(C(C)C)c23)c(F)cc1C [Example 72]	9.70	–
